# Test results taken from publication PMC8634383, “Switching Bond: Generation of New Antimicrobial Peptides via the Incorporation of an Intramolecular Isopeptide Bond” (ACS Infectious Diseases, 2021).
# Starred links: 1 amine or outer side, 2 acyl side, 3 side chain; linkers in the order of their positions; H or OH if unused. Positions of bridges follow the written chain, without caps; N, C: chain ends. Non-standard residues stand in square brackets, D forms with d. Residues, ends and D or L forms follow the SMILES beside them. Chains are numbered I, II in the order given. No end group written: not given here. εLys = N[C@@H](CCCCN[*:1])C(=O)[*:2]
# Key:
# Bacillus subtilis = assay type: cell-based; settings: 24 h
# Experimental: (§1) A panel of four bacteria, including two Gram-negative (P. aeruginosa, E. coli) and two Gram-positive (S. aureus, B. subtilis) bacterial strains, was used to test the antibacterial properties of the peptides. The bacteria P. aeruginosa, E. coli, and S. aureus belong to the ESKAPE group of pathogens, which are potential multidrug resistant strains that are majorly involved in various nosocomial infections.
# (§2) The antimicrobial activity of the peptides was determined against two Gram-negative (Pseudomonas aeruginosa PA01 and the Escherichia coli K12 parental type) and two Gram-positive (Staphylococcus aureus and Bacillus subtilis) bacteria. The minimal inhibitory concentration (MIC) assays were performed as reported by Wiegand et al.,[50] using the broth microdilution method in 96-well round-bottom microplates. Briefly, bacterial cells in mid log phase were cultured in Mueller-Hinton broth (MHB) and then diluted to 10^6 CFU/mL. Aliquots of 50 μL of bacterial solution were added to 50 μL of MHB medium containing 2-fold serially diluted peptides with concentrations ranging from 1.56 to 50 μM. Plates were incubated at 37 °C for 24 h, and MICs were defined as the lowest concentration of peptide that prevented detectable turbidity. Cultures without peptides and uninoculated MHB were employed as positive and negative controls, respectively. The bacterial growth inhibition was evaluated by measuring the absorbance at 600 nm using a microplate autoreader (SynersyMx, Biotek).
# [1] = system: Escherichia coli K12 parental type; assay type: cell-based; settings: K12, 24 h
# Experimental: as §1, §2
# trypsin = assay: in vitro; settings: for peptide remaining intact after trypsin incubation: trypsin 10 μg/mL, peptide 100 μM in PBS, 1 h, RP-HPLC C18 peak area relative to t0; for remaining at 1 h, 100 μM: trypsin in phosphate buffered saline
# Excerpt: In order to overcome the proteolytic instability of peptide based drugs, the resistance of peptides to proteases is an essential prerequisite[33] because the peptides can be digested by the microbial or host protease and lose activity. Here, we tested the effect of the incorporation of an amide bond isostere on the resistance to trypsin, a serine protease known to cleave peptide bonds mainly at the C-terminal side of the amino acids lysine or arginine.
# Figure 5 Resistance of peptides to trypsin digestion.
# Proteolysis was measured by RP-HPLC using the following parameters, as reported.[52] Trypsin with a final concentration of 10 μg/mL was added to a solution of the peptides in phosphate buffered saline (100 μM), and the reaction was monitored over time by using reversed-phase HPLC (C18 reverse phase, Bio-Rad analytical column, 250 × 4 mm, 300 Å pore size, 7 μm particle size). The column was eluted in 40 min using a linear gradient of 10–90% acetonitrile in water containing 0.1% trifluoroacetic acid (v/v) at a flow rate of 0.6 mL/min.
# in vitro = settings: for percentage intact peptide: 20% (v/v) human plasma, 37 °C, RP-HPLC C18, 215 nm peak area; for remaining at 0.25 h, 200 μM / remaining at 0.5 h, 200 μM / remaining at 1 h, 200 μM / remaining at 2 h, 200 μM / remaining at 4 h, 200 μM: human, blood plasma (20% v/v), pH 7.4
# Experimental: The stability of the peptides was assessed by incubating them in blood plasma (20% v/v) rich in proteases thrombin and plasmin for different time periods at 37 °C.
# The stability of peptides in human blood plasma was measured using a literature procedure.[13],[53] Plasma was separated from red blood cells over centrifugation, frozen, and stored at −80 °C until use. Briefly, peptides were prepared as a 1 mM solution in phosphate buffered saline (pH 7.4). 20 μL of the peptide solution was diluted in 80 μL of blood plasma (20% v/v). The solution was incubated at 37 °C for different time points, and 100 μL of a mixture containing 80% acetonitrile/10% methanol/10% water was added to stop further degradation of the peptides. A cloudy solution was produced upon the addition of the stopping solution, and the sample was cooled to 4 °C for 1 h and then centrifuged at 10 000 rpm for 10 min to remove the plasma proteins as precipitate. The supernatant (50 μL) was injected onto a reversed-phase HPLC (C18 reverse phase, Bio-Rad analytical column, 250 × 4 mm, 300 Å pore size, 7 μm particle size). The column was eluted in 40 min using a linear gradient of 10–90% acetonitrile in water containing 0.1% trifluoroacetic acid (v/v) at a flow rate of 0.6 mL/min, and the absorbance was detected at 215 nm. The percentage of remaining peptide was determined by the decrease in chromatographic peak area.
# [2] = system: Pseudomonas aeruginosa PA01; assay type: cell-based; settings: 24 h
# Experimental: as §1, §2
# [3] = system: human monocytic (THP-1) cells; assay type: cell-based; settings: 100 µM
# Experimental: Peptide-induced cytotoxicity was assessed against murine macrophage (RAW 264.7) cells and human monocytic (THP-1) cells using the benzenesulfonic acid hydrate and N-methyl dibenzopyrazine methyl sulfate (XTT) dye reduction assay. […] This may in part be due to low hydrophobicity (Table 1), leading to less bacterial membrane alteration.
# Figure 3 Cytotoxicity of peptides (1.56–100 μM) on human monocytic (THP-1) cells. Cell viability was analyzed and quantified by measuring the absorption at 450 nm. The data is presented as mean percent viability. All data represent mean ± SD from three independent experiments. One-way analysis of variance was used to analyze the data.
# The cytotoxicity of the peptides toward the murine macrophage cells (RAW 264.7) and human monocytic (THP-1) cells was assayed using the colorimetric 2,3-bis(2-methoxy-4-nitro-5-sulfophenyl)-2H-tetrazolium-5-carboxanilide (XTT) method. […] After incubation, the cell viabilities were assessed by the XTT reaction solution (100 μL), and benzenesulfonic acid hydrate and N-methyl dibenzopyrazine methyl sulfate (mixed in a 50:1 ratio) were added for an additional 4 h incubation at 37 °C. The absorbance at 450 nm was then measured using a microplate autoreader (SynersyMx, Biotek). The percentage of cell viability was calculated relative to the 100% survival control after the blank read’s deduction.
# Staphylococcus aureus = assay type: cell-based; settings: 24 h
# Experimental: as §1, §2
Compound,MIC (Bacillus subtilis) [µM],MIC [1] [µM],peptide remaining intact after trypsin incubation (trypsin),percentage intact peptide (in vitro; 30 min) [%],percentage intact peptide (in vitro; 120 min) [%],"remaining at 0.25 h, 200 μM (in vitro) [%]","remaining at 0.5 h, 200 μM (in vitro) [%]","remaining at 1 h, 200 μM (in vitro) [%]","remaining at 2 h, 200 μM (in vitro) [%]","remaining at 4 h, 200 μM (in vitro) [%]",MIC [2] [µM],drop of cell viability [3] [%],"remaining at 1 h, 100 μM (trypsin) [%]",MIC (Staphylococcus aureus) [µM]
LKLLKKLLKKLLKLL-NH2 [Amp1L],6.25 to 12.5,3.12 to 6.25,no longer detected,~65,~61,71,65,62,61,39,–,–,–,–
CC(C)C[C@H](NC(=O)[C@H](CC(C)C)NC(=O)[C@@H](N)CCCCNC(=O)[C@H](CC(C)C)NC(=O)[C@H](CC(C)C)NC(=O)[C@H](CCCCN)NC(=O)[C@@H](N)CCCCNC(=O)[C@H](CC(C)C)NC(=O)[C@H](CC(C)C)NC(=O)[C@H](CCCCN)NC(=O)[C@@H](N)CCCCNC(=O)[C@H](CC(C)C)NC(=O)[C@H](CC(C)C)NC(=O)[C@H](CCCCN)NC(=O)[C@@H](N)CC(C)C)C(N)=O [Amp1EP] (I: H-LKLL[εLys]KLL / II: H-KKLL[εLys]LL-NH2; amide I:C-II:1),12.5,6.25,–,~85,–,85,85,66,60,37,3.125 to 6.25,50,37,–
GIGKFLKKAKKFGKAFVKILKK-NH2 [MSI-78],1.56,1.56 to 3.12,no longer detected,–,–,91,81,81,63,55,–,–,–,0.78 to 1.56
CC[C@H](C)[C@H](NC(=O)CN)C(=O)NCC(=O)N[C@@H](CCCCN)C(=O)N[C@@H](Cc1ccccc1)C(=O)N[C@@H](CC(C)C)C(=O)N[C@@H](CCCCN)C(=O)NCCCC[C@H](N)C(=O)N[C@@H](C)C(=O)N[C@@H](CCCCN)C(=O)N[C@@H](CCCCN)C(=O)N[C@@H](Cc1ccccc1)C(=O)NCC(=O)NCCCC[C@H](N)C(=O)N[C@@H](C)C(=O)N[C@@H](Cc1ccccc1)C(=O)N[C@H](C(=O)NCCCC[C@H](N)C(=O)N[C@H](C(=O)N[C@@H](CC(C)C)C(=O)N[C@@H](CCCCN)C(=O)N[C@@H](CCCCN)C(N)=O)[C@@H](C)CC)C(C)C [MSIEP] (H-GIGKFLK[εLys]AKKFG[εLys]AFV[εLys]ILKK-NH2),6.25 to 12.5,12.5,–,–,–,99,98,76,75,75,6.25 to 12.5,20,> 66,6.25 to 12.5
